In one assay the test system is KFr13 cells. Kind of assay: Colony formation (clonogenic) assay, cisplatin sensitivity. It is filed as cell-based, human. The procedure: (§1) Cells and culture. Six human ovarian carcinoma cell lines (2008, A2780, HEY, IGROV-1, KF28 and UCI 107) were used in this study. Sublines stably resistant to DDP (2008/C13*5.25, A2780/CP70, HEY C2, IGROV-1/CP, KFr13 and UCI CPR) had been prepared from each parental line by repeated in vitro exposure to DDP as previously described (Mishima et al., 2002). All cell lines were maintained in drug-free RPMI-1640 medium (GIBCO, Inc.) with 10% fetal calf serum (GIBCO, Inc.) at 37° C. in a humidified atmosphere containing 5% CO2. The degree of resistance of each subline was determined at the time RNA was harvested using a clonogenic assay with continuous drug exposure as previously described (Mishima et al., 2002).
(§2) Cisplatin sensitivity. Colony formation assays were used to determine the sensitivity of the 6 pairs of DDP-sensitive and resistant cell lines to the cytotoxic effect of DDP.

Another assay relates to HEY cells. Described as above. It counts as cell-based, human. To be noted: parental HEY cells, continuous drug exposure. The procedure: as §1, §2
For another assay, the system named is 2008 cells. The description is as above. It counts as cell-based, human. The settings on record: parental 2008 cells, continuous drug exposure. The procedure:
as §1, §2

The next assay concerns UCI 107 cells. The assay is described as above. It counts as cell-based, human. The settings on record: parental UCI 107 cells, continuous drug exposure. As for the experimental part:
as §1, §2

Another assay concerns IGROV-1/CP cells. Described as above. It is filed as cell-based, human. The procedure: as §1, §2
The subject of a further assay is UCI CPR cells. Described as above. It counts as cell-based, human. As for the experimental part:
as §1, §2

A further assay relates to 2008/C13*5.25 cells. Described as above. It is filed as cell-based, human. As for the experimental part: as §1, §2
For a further assay, the system named is KF28 cells. Described as above. It is filed as cell-based, human. The settings on record: parental KF28 cells, continuous drug exposure. The procedure:
as §1, §2

The next assay concerns HEY C2 cells. The assay is described as above. It counts as cell-based, human. The procedure:
as §1, §2

The test system of another assay is IGROV-1 cells. The description is as above. It is filed as cell-based, human. To be noted: parental IGROV-1 cells, continuous drug exposure. As for the experimental part: as §1, §2
A further assay concerns A2780/CP70 cells. Described as above. It counts as cell-based, human. The procedure: as §1, §2
The subject of another assay is A2780 cells. The description is as above. It counts as cell-based, human. To be noted: parental A2780 cells, continuous drug exposure. As for the experimental part:
as §1, §2

The test system of assay [1] is cells transfected with a metallothionein gene. The settings on record: cited from earlier work.
The subject of assay [2] is cells transfected with the c-myc gene. To be noted: cited from earlier work.

The term IC50 denotes the midpoint of a concentration-inhibition curve.

Consider `N.N.[Cl][Pt][Cl]` [Cisplatin, cis-diamminedichloroplatinum], for which the “Fold-resistant (ratio of IC50 values)” value in the assay with KFr13 cells (KFr13 vs KF28) stood at 2.2 fold; in the assay with IGROV-1/CP cells (IGROV-1/CP vs IGROV-1), 3.6 fold; in the assay on UCI CPR cells (UCI CPR vs UCI 107), 8 fold; in the assay on 2008/C13*5.25 cells (2008/C13*5.25 vs 2008), 1.6 fold; with HEY C2 cells (HEY C2 vs HEY) it was 6.1 fold; in the assay on A2780/CP70 cells (A2780/CP70 vs A2780), 11.9 fold. Besides, the 50% inhibitory concentration (IC50) in the assay with KFr13 cells (resistant KFr13 cells, colony formation, continuous drug exposure) was 400 nM; in the assay on HEY cells, 760 nM; in the assay with 2008 cells, 700 nM; in the assay on UCI 107 cells it was 1000 nM; in the assay with IGROV-1/CP cells (resistant IGROV-1/CP cells, colony formation, continuous drug exposure), 1080 nM; with UCI CPR cells (resistant UCI CPR cells, colony formation, continuous drug exposure), 8 µM. The IC50 in the assay on 2008/C13*5.25 cells (resistant 2008/C13*5.25 cells, colony formation, continuous drug exposure) was 1100 nM; with KF28 cells, 180 nM; with HEY C2 cells (resistant HEY C2 cells, colony formation, continuous drug exposure) it was 4.6 µM; in the assay on IGROV-1 cells, 300 nM; with A2780/CP70 cells (resistant A2780/CP70 cells, colony formation, continuous drug exposure) it was 2500 nM; with A2780 cells, 210 nM. Also, the “level of increased resistance” value is “less than 5 fold” in assay [1] and “less than 3 fold” in assay [2].

The record behind these values is US20060019268A1, “Molecular markers of cisplatin resistance in cancer and uses thereof” (Research Development Foundation, priority 2004, published 2006).
